Laboratory results from patent publication US8221745B2 (Velico Medical, Inc., priority 2004, dated 2012).

Experiments:
[1] = test system: differentiated monocytic cell line THP-1; experiment: In vitro phagocytic assay: ingestion of chilled or room temperature human platelets by THP-1 cells; format: cell-based; conditions: for inhibitory effect on chilled platelet phagocytosis (in words): phagocytes incubated in monosaccharide solutions at various concentrations; for inhibitory effect on RT platelet phagocytosis (in words): room temperature platelets
Protocol: CR3 expression was monitored by flow cytometry using a PE-conjugated anti-human CD11b/Mac-1 mAb. Undifferentiated or differentiated THP-1 cells (2×10^6/ml) were plated onto 24-well plates and allowed to adhere for 45 minutes at 37° C. The adherent undifferentiated or differentiated macrophages were activated by the addition of 15 ng/ml PMA for 15 min. CM-range-labeled, chilled or room temperature platelets (10^7/well), previously subjected to different treatments were added to the undifferentiated or differentiated phagocytes in Ca^2+- and Mg^2+-containing HBSS and incubated for 30 min at 37° C. Following the incubation period, the phagocyte monolayer was washed with HBSS for 3 times, and adherent platelets were removed by treatment with 0.05% trypsin/0.53 mM EDTA in HBSS at 37° C. for 5 min followed by 5 mM EDTA at 4° C. to detach the macrophages for flow cytometric analysis of adhesion or ingestion of platelets (Brown et al., 2000). […] CM-Orange-labeled platelets incubated with macrophages were resolved from the phagocytes according to their forward and side scatter properties. The macrophages were gated, 10,000 events acquired for each sample, and data analyzed with CELLQuest software (Becton Dickenson).
To analyze the effects of monosaccharides on platelet phagocytosis, phagocytes (differentiated monocytic cell line THP-1) were incubated in monosaccharide solutions at various concentrations, and the chilled or room temperature platelets were added. Values in the Figures are means±SD of 3-5 experiments comparing percentages of orange-positive monocytes containing ingested platelets incubated with RT or chilled platelets).

[2] = test system: chilled human platelets; experiment: FITC-WGA / S-WGA lectin binding to platelets by flow cytometry; format: cell-based; conditions: chilled or room temperature human platelets; control nucleotides
Protocol: We then investigated whether wheat germ agglutinin (WGA), a lectin with specificity towards the terminal sugar (GlcNAc), binds more effectively to chilled platelets than to room temperature platelets. Washed, chilled or room temperature platelets were incubated with 2 μg/ml of FITC coupled WGA or FITC coupled succinyl-WGA for 30 min at room temperature and analyzed by flow cytometry.
To analyze whether removal of GlcNAc residues reduces the binding of WGA to the platelet surface, chilled and room temperature washed human platelets were treated with 100 U/ml β-Hex for 30 min at 37° C.

[3] = test system: human platelets; experiment: RCA I lectin binding to platelets by flow cytometry; format: cell-based; conditions: chilled or room temperature human platelets; control nucleotides
[4] = test system: human platelets; experiment: Immunolabeling and flow cytometry of chilled versus room temperature platelets (human); format: cell-based; conditions: mean±SD, n=3−4
Protocol: (§1) Washed murine or human platelets (2×10^6) were analyzed for surface expression of CD62P, CD61, or surface bound IgM and IgG after chilling or room temperature storage by staining with fluorophore-conjugated Abs (5 μg/ml) for 10 min at 37° C. Phosphatidylserine exposure by chilled or room temperature platelets was determined by resuspending 5 μl of platelets in 400 μl of HBSS containing 10 mM Ca^2+ with 10 μg/ml of FITC-conjugated annexin-V. As a positive control for PS exposure, platelet suspensions were stimulated with 1 μM A23187. Fibrinogen binding was determined by the addition of Oregon Green-fibrinogen for 20 min at room temperature. All platelet samples were analyzed immediately by flow cytometry. Platelets were gated by forward and side scatter characteristics.
(§2) The binding of fluorescently labeled antibodies or ligands against various receptors on chilled-rewarmed or room temperature human and murine platelets was measured by flow cytometry. The data are expressed as the ratio between the mean fluorophore bound to the surface of chilled versus room temperature platelets (mean±SD, n=3−4).

[5] = test system: Murine platelets; experiment: Immunolabeling and flow cytometry of chilled versus room temperature platelets (murine); format: cell-based; conditions: mean±SD, n=3−4
Protocol: as §1, §2

[6] = mice lacking 2,3Sialyltransferase IV; cited from earlier work
[7] = test system: platelet membrane glycoproteins; experiment: Incorporation of 14C-labeled sugars into endogenous platelet glycoproteins (SDS-PAGE, autoradiography); format: biochemical, human; conditions: intact non-lysed platelets
Protocol: Transfer of sialic acids to endogenous glycoproteins by platelet sialyltransferase activity was tested in two ways. […] Intact platelets suspended in buffer (140 mM NaCl, 3 mM KCl, 0.5 mM MgCl2, 5 mM NaHCO3, 10 mM Hepes, pH 7.4) were used to assess the capacity of surface exposed sialyltransferase activity to transfer to platelet membrane glycoproteins. […] Thus, it was possible to use three different glycan modification strategies: addition of 1) UDP-[^14C]-galactose, 2) UDP-[^14C]-galactose and CMP-[^14C]-sialic acid, and 3) CMP-[^14C]-sialic acid alone. The incorporation of radioactive sugar nucleotides were monitored by SDS-PAGE chromatography followed by autoradiography.
The incorporation of radioactive carbohydrate sialic acid in endogenous platelet acceptor proteins was evaluated by incubating either detergent lysed platelets or non-lysed platelets with CMP-[^14C]-sialic. The incorporation ^14C-sialic acid was monitored by SDS-PAGE chromatography of the glycosylation mixture followed by autoradiography. Briefly, human apheresis platelets were washed and resuspended in resuspension buffer (40 mM NaCl, 3 mM KCl, 0.5 mM MgCl2, 5 mM NaHCO3, 10 mM Hepes, pH 7.4) and split in two fractions. One fraction was incubated with addition of CMP-[^14C]-sialic acid at 37° C. for 60 minutes. […]

O=C[C@H](O)[C@@H](O)[C@@H](O)[C@H](O)CO [D-(+)-galactose]
% inhibition phagocytosis ([1]; chilled platelets, monosaccharide 100 mM): did not significantly inhibit

O=C[C@@H](O)[C@@H](O)[C@H](O)[C@H](O)CO [D-(+)-mannose]
inhibitory effect on chilled platelet phagocytosis (in words) ([1]; chilled platelets): no inhibitory effect | inhibitory effect on RT platelet phagocytosis (in words) [1]: no inhibitory effect

CC(=O)N[C@H]1C(O)O[C@H](CO)[C@@H](O)[C@@H]1O (stereo partly drawn) [GlcNac, N-acetyl-D-glucosamine]
inhibition of chilled platelet phagocytosis (in words) ([1]; 25 to 200 mM): significantly inhibited

CO[C@H]1O[C@H](CO)[C@@H](O)[C@H](O)[C@H]1O [Methyl-α-D-glucopyranoside]
inhibitory effect on chilled platelet phagocytosis (in words) ([1]; chilled platelets): did not have an inhibitory effect

CO[C@H]1O[C@H](CO)[C@@H](O)[C@H](O)[C@@H]1O [Methyl-α-D-mannopyranoside]
inhibitory effect on chilled platelet phagocytosis (in words) ([1]; chilled platelets): no inhibitory effect | inhibitory effect on RT platelet phagocytosis (in words) [1]: no inhibitory effect

COC1OC(CO)C(O)C(O)C1O [Methyl-β-D-gludopyranoside]
inhibitory effect on chilled platelet phagocytosis (in words) ([1]; chilled platelets): inhibited phagocytosis in a dose-dependent manner

CO[C@@H]1O[C@H](CO)[C@@H](O)[C@H](O)[C@@H]1O [Methyl-β-D-mannopyranoside]
inhibitory effect on chilled platelet phagocytosis (in words) ([1]; chilled platelets): no inhibitory effect | inhibitory effect on RT platelet phagocytosis (in words) [1]: no inhibitory effect

O=c1ccn([C@@H]2O[C@H](COP(=O)(O)OP(=O)(O)O)[C@@H](O)[C@H]2O)c(=O)[nH]1 [UDP]
effect on S-WGA binding [2]: no effect | effect on RCA I binding [3]: no effect

CC(=O)N[C@@H]1[C@@H](O)[C@H](O)[C@@H](CO)O[C@H]1O [β-GlcNac]
inhibition of the phagocytosis of chilled platelets ([1]; 10 μM): 80% | inhibitory effect on chilled platelet phagocytosis (in words) ([1]; chilled platelets): strongly inhibited

annexin V: FITC-conjugated annexin-V, ligand for phosphatidylserine exposure
Binding ratio 4° C.:22° C. [4]: 0.95 ± 0.09 | Binding ratio 4° C.:22° C. [5]: 1.04 ± 0.02

asialofetuin
platelet count [6]: corrects the platelet count

cytidine monophospho-N-acetylneuraminic acid [CMP-sialic acid]
incorporation of radioactive sugar into platelet membrane glycoproteins [7]: high level of incorporation

fibrinogen
Binding ratio 4° C.:22° C. [4]: 1.05 ± 0.10 | Binding ratio 4° C.:22° C. [5]: 1.06 ± 0.06
